18 compounds from patent US7649092B2, “Urea derivatives as calcium channel blockers” (Neuromed Pharmaceuticals Ltd., priority 2004, dated 2010) can be followed below.

SMILES strings stand for the structures. Where two headings read alike, the source gives them in different places. Where only a bound is given, the exact number is not on record here.

Assay [1] addresses T1, rat brain N-type calcium channel subunits (α1B+α2δ+β1b cDNA subunits) (Rattus norvegicus, UniProt Q02294).
T1 construct: expressed in transfected cells
Nature of the assay: N-type calcium channel block, whole cell patch clamp in HEK 293 cells. The class given is cell-based. As to conditions: holding potential −80 mV to +10 mV. As for the experimental part: N-type calcium channel blocking activity was assayed in human embryonic kidney cells, HEK 293, stably transfected with the rat brain N-type calcium channel subunits (α1B+α2δ+β1b cDNA subunits). Alternatively, N-type calcium channels (α1B+α2δ+β1b cDNA subunits), L-type channels (α1C+α2δ+β1b cDNA subunits) and P/Q-type channels (α1A+α2δ+β1b cDNA subunits) were transiently expressed in HEK 293 cells. Briefly, cells were cultured in Dulbecco's modified eagle medium (DMEM) supplemented with 10% fetal bovine serum, 200 U/ml penicillin and 0.2 mg/ml streptomycin at 37° C. with 5% CO2. At 85% confluency cells were split with 0.25% trypsin/1 mM EDTA and plated at 10% confluency on glass coverslips. At 12 hours the medium was replaced and the cells transiently transfected using a standard calcium phosphate protocol and the appropriate calcium channel cDNA's. Fresh DMEM was supplied and the cells transferred to 28° C./5% CO2. Cells were incubated for 1 to 2 days prior to whole cell recording.
Whole cell patch clamp experiments were performed using an Axopatch 200B amplifier (Axon Instruments, Burlingame, Calif.) linked to a personal computer equipped with pCLAMP software. The external and internal recording solutions contained, respectively, 5 mM BaCl2, 10 mM MgCl2, 10 mM HEPES, 40 mM TEAC1, 10 mM glucose, 87.5 mM CsCl (pH 7.2) and 108 mM CsMS, 4 mM MgCl2, 9 mM EGTA, 9 mM HEPES (pH 7.2). Currents were typically elicited from a holding potential of −80 mV to +10 mV using Clampex software (Axon Instruments). Typically, currents were first elicited with low frequency stimulation (0.067 Hz) and allowed to stabilize prior to application of the compounds. The compounds were then applied during the low frequency pulse trains for two to three minutes to assess tonic block, and subsequently the pulse frequency was increased to 0.2 Hz to assess frequency dependent block. Data were analyzed using Clampfit (Axon Instruments) and SigmaPlot 4.0 (Jandel Scientific).

Assay [2] has as its target T2, human DiG T-type channels (Homo sapiens, UniProt O43497).
T2 construct: expressed in transfected cells
Put plainly: T-type calcium channel block, whole-cell patch clamp in HEK cell lines. The class given is cell-based. As for the experimental part:
Standard patch-clamp techniques were employed to identify blockers of T-type currents. Briefly, previously described HEK cell lines stably expressing human DiG T-type channels were used for all the recordings (passage #: 4-20, 37° C., 5% CO2). To obtain T-type currents, plastic dishes containing semi-confluent cells were positioned on the stage of a ZEISS AXIOVERT S100 microscope after replacing the culture medium with external solution (see below). Whole-cell patches were obtained using pipettes (borosilicate glass with filament, O.D.: 1.5 mm, I.D.: 0.86 mm, 10 cm length), fabricated on a SUTTER P-97 puller with resistance values of ˜5 MΩ (see below for internal solution).
In the non-inactivating protocol, the holding potential is set at −110 mV and with a pre-pulse at −100 mV for 1 second prior to the test pulse at −40 mV for 50 ms. […]
Test compounds were dissolved in external solution, 0.1-0.01% DMSO. After ˜10 min rest, they were applied by gravity close to the cell using a WPI microfil tubing. The “non-inactivated” pre-pulse was used to examine the resting block of a compound. The “inactivated” protocol was employed to study voltage-dependent block. However, the initial data shown below were mainly obtained using the non-inactivated protocol only. IC50 values are shown for various compounds of the invention in Table 5.

The subject of assay [3] is rat formalin model. Nature of the assay: Formalin-induced pain model (paw flinches). The class given is in vivo. As to conditions: 30 mg/kg IP, 10 min before formalin, ±SEM, saline control=100%. As for the experimental part: The effects of intrathecally delivered compounds of the invention on the rat formalin model were measured. The compounds were reconstituted to stock solutions of approximately 10 mg/ml in propylene glycol. Eight Holtzman male rats of 275-375 g size were randomly selected per test article.
The following study groups were used, with test article, vehicle control (propylene glycol) and saline delivered intraperitoneally (IP):
Prior to initiation of drug delivery baseline behavioral and testing data were taken.
On the morning of testing, a small metal band (0.5 g) was loosely placed around the right hind paw. The rat was placed in a cylindrical Plexiglas chamber for adaptation a minimum of 30 minutes. Test Article or Vehicle Control Article was administered 10 minutes prior to formalin injection (50 μl of 5% formalin) into the dorsal surface of the right hind paw of the rat. The animal was then placed into the chamber of the automated formalin apparatus where movement of the formalin injected paw was monitored and the number of paw flinches tallied by minute over the next 60 minutes (Malmberg, A. B., et al., Anesthesiology (1993) 79:270-281).
Results are presented as Maximum Possible Effect ±SEM, where saline control=100%.

Where [4] appears, read: low frequency stimulation 0.067 Hz (tonic block), read-out: IC50 @ 0.067 Hz.
Setting [5] is: pulse frequency 0.2 Hz (frequency dependent block), read-out: IC50 @ 0.2 Hz.
The mark [6] stands for this setting: inactivation protocol, @ −80 mV, read-out: IC50 @ −80 mV.
Where [7] appears, read: non-inactivating protocol, pre-pulse −100 mV, test pulse −40 mV, read-out: IC50 @ −100 mV.

T1 sequence (Q02294 whole entry): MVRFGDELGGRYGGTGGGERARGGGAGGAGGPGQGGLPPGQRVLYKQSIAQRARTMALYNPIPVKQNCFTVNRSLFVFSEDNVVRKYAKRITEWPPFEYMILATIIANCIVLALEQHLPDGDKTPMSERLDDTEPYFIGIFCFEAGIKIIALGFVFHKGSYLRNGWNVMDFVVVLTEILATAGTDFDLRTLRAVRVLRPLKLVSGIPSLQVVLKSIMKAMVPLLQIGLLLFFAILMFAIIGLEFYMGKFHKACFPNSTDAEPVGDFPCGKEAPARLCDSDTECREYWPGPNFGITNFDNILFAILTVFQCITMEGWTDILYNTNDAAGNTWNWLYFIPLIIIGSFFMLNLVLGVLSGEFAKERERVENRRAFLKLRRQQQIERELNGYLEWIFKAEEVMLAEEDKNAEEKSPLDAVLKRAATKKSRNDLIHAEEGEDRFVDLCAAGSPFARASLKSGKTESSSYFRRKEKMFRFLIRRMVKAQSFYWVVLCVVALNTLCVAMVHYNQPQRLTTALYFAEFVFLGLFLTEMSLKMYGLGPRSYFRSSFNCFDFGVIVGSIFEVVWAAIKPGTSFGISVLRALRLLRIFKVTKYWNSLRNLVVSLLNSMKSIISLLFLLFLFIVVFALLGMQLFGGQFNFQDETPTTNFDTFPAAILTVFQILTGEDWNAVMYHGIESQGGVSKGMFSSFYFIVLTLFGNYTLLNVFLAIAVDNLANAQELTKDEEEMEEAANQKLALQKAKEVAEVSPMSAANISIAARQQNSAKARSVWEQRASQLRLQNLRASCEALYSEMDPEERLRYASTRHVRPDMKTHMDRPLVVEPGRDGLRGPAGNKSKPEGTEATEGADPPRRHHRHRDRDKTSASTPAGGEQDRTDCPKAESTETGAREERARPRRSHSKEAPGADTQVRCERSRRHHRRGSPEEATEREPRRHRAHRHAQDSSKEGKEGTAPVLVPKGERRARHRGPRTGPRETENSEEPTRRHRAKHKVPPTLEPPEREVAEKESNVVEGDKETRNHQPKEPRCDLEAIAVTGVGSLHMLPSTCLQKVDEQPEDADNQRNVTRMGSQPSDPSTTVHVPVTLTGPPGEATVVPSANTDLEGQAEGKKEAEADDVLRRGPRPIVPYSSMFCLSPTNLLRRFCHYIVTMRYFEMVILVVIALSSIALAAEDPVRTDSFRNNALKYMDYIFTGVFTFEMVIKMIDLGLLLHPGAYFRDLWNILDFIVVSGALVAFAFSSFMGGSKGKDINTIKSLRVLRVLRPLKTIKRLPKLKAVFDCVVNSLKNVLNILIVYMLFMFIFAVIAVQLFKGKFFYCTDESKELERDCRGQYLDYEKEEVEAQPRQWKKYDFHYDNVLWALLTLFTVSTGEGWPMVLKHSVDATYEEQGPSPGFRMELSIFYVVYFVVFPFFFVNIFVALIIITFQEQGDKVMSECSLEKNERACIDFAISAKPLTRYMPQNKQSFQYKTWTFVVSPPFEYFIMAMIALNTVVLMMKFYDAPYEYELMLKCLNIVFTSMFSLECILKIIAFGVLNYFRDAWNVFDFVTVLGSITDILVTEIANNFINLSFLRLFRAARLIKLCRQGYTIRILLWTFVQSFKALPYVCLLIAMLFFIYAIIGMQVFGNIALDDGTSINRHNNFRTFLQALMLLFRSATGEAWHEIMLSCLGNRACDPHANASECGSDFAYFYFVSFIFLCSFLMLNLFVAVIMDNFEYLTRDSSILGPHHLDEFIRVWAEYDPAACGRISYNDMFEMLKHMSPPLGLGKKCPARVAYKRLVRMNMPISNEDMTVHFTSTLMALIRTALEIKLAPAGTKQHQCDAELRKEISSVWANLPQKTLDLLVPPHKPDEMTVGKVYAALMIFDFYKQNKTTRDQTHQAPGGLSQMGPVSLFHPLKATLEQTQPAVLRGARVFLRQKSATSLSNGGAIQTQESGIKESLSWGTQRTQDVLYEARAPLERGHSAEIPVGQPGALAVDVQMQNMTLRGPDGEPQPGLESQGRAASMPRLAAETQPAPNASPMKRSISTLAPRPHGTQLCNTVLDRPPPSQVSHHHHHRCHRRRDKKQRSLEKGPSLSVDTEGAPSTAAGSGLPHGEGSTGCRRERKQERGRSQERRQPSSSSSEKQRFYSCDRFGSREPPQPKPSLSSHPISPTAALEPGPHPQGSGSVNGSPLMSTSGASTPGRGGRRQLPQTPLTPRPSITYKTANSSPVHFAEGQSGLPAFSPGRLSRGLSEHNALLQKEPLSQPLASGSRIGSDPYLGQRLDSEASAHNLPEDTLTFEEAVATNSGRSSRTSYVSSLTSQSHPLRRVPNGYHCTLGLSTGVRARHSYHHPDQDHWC
T1 sequence (P54290 25-1091 partner): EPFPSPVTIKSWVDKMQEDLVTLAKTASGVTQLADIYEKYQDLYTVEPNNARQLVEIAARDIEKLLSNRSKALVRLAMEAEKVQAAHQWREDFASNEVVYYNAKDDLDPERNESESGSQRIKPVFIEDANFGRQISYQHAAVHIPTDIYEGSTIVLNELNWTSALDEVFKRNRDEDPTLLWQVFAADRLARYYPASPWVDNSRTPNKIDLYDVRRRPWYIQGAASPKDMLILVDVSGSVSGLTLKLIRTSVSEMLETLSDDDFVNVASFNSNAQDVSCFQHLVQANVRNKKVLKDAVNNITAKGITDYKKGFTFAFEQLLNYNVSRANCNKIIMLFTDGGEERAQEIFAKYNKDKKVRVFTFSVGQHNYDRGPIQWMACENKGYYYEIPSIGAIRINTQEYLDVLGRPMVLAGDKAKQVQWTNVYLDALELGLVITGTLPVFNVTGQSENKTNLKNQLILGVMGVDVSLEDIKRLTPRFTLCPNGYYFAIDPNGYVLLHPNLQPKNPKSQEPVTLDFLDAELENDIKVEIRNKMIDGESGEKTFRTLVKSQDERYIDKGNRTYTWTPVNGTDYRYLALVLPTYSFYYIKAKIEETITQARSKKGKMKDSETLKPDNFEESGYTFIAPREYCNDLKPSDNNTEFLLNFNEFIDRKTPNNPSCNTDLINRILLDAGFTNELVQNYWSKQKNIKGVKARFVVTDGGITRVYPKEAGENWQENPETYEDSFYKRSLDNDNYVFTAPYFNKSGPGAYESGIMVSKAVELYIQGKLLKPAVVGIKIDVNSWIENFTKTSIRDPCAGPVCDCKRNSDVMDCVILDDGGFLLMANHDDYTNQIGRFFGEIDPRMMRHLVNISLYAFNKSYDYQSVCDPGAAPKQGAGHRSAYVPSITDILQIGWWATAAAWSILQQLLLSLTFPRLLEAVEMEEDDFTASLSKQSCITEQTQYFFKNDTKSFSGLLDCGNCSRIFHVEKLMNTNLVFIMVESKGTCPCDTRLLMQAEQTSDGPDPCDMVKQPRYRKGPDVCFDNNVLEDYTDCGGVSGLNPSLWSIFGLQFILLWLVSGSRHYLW
T1 sequence (P54283 whole entry partner): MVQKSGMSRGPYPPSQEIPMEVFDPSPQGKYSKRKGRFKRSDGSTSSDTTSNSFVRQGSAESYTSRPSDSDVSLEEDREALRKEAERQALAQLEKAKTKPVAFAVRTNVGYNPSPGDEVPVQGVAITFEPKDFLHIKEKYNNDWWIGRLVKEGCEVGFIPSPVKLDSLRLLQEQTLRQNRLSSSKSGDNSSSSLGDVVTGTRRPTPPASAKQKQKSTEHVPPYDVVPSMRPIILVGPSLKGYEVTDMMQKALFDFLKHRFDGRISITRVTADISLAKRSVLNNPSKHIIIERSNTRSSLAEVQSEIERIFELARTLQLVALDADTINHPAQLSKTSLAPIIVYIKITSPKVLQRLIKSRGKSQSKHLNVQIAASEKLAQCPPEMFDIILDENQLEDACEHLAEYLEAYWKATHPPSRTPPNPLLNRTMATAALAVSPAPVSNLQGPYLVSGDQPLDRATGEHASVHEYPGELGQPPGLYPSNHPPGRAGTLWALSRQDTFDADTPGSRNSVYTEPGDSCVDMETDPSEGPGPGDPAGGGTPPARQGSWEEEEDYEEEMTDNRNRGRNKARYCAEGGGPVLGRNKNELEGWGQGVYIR

As for `O=C(NC(c1ccccc1)c1ccccc1)N1CCN(C(c2ccccc2)c2ccc(Cl)cc2Cl)CC1` (centres unmarked) [Compound 2, 4-[(2,4-Dichloro-phenyl)-phenyl-methyl]-piperazine-1-carboxylic acid benzhydryl-amide], the IC50 in assay [1] (setting [4]) worked out at 1480 nM; in assay [1] (setting [5]), 1480 nM; in assay [2] (setting [6]), 66 nM; in assay [2] (setting [7]), 221 nM.
In the case of `Cc1ccc(C(c2ccccc2)N2CCN(C(=O)NC(c3ccccc3)c3ccccc3)CC2)c(C)c1` (centres unmarked) [Compound 3], the IC50 is 2710 nM in assay [1] (setting [4]), 2710 nM in assay [1] (setting [5]), 28 nM in assay [2] (setting [6]) and 75 nM in assay [2] (setting [7]).
Take `O=C(NC(c1ccccc1)c1ccccc1)N1CCN(C(c2ccccc2)c2ccc(Cl)cc2)CC1` (centres unmarked) [Compound 4, 4-[(4-Chloro-phenyl)-phenyl-methyl]-piperazine-1-carboxylic acid benzhydryl-amide]: the IC50 in assay [1] (setting [4]) is 290 nM; in assay [1] (setting [5]) it was 280 nM; in assay [2] (setting [6]), 56 nM; in assay [2] (setting [7]) it was 171 nM. For the same compound, the “Phase I (% MPE)” value in assay [3] is recorded as 71 ± 15 % MPE. In assay [3], the “Phase II Total (% MPE)” value was 74 ± 11 % MPE. Besides, the “Phase IIA (% MPE)” value in assay [3] stood at 70 ± 13 % MPE. The “Phase IIB (% MPE)” value in assay [3] is reported as 88 ± 9 % MPE.
As to `O=C(NC(c1ccccc1)c1ccccc1)N1CCN(C(c2ccccc2)c2cccc(Cl)c2)CC1` (centres unmarked) [Compound 5, 4-[(3-Chloro-phenyl)-phenyl-methyl]-piperazine-1-carboxylic acid benzhydryl-amide], the IC50 in assay [1] (setting [4]) was found to be 390 nM. In assay [1] (setting [5]), the IC50 was found to be 340 nM. In addition, the IC50 in assay [2] (setting [6]) stood at 53 nM. For the same compound, the IC50 in assay [2] (setting [7]) came to 242 nM. In assay [3], the “Phase I (% MPE)” value is 54 ± 11 % MPE, the “Phase II Total (% MPE)” value turned out to be 65 ± 10 % MPE, the “Phase IIA (% MPE)” value is listed as 52 ± 10 % MPE and the “Phase IIB (% MPE)” value came out at 105 ± 13 % MPE.
Consider `CN1CCC(CN2CCN(C(=O)NC(c3ccccc3)c3ccccc3)CC2)CC1` [Compound 10, 4-(1-Methyl-piperidin-4-yl-methyl)-piperazine-1-carboxylic acid benzhydryl-amide], for which the IC50 in assay [1] (setting [4]) amounted to 260 nM; in assay [1] (setting [5]), 260 nM; in assay [2] (setting [6]), 20000 nM; in assay [2] (setting [7]), 20000 nM.
For the compound `CN(C)CCCN1CCN(C(=O)NC(c2ccccc2)c2ccccc2)CC1` [Compound 11, 4-(3-Dimethylamino-propyl)-piperazine-1-carboxylic acid benzhydryl-amide], in assay [1] (setting [4]), the IC50 worked out at 2170 nM. Besides, the IC50 in assay [1] (setting [5]) turned out to be 990 nM. For the same compound, in assay [3], the “Phase I (% MPE)” value was found to be 59 ± 13 % MPE, the “Phase II Total (% MPE)” value came to 60 ± 12 % MPE, the “Phase IIA (% MPE)” value amounted to 50 ± 14 % MPE and the “Phase IIB (% MPE)” value was found to be 94 ± 22 % MPE.
Consider `CN1CCCC(CN2CCN(C(=O)NC(c3ccccc3)c3ccccc3)CC2)C1` (centres unmarked) [Compound 12, 4-(1-Methyl-piperidin-3-ylmethyl)-piperazine-1-carboxylic acid benzhydryl-amide], for which the IC50 is 1700 nM in assay [1] (setting [4]) and 490 nM in assay [1] (setting [5]).
As for `CN1CCC(C(c2ccccc2)N2CCN(C(=O)NC(c3ccccc3)c3ccccc3)CC2)CC1` (centres unmarked) [Compound 20, 4-[(1-Methyl-piperidin-4-yl)-phenyl-methyl]-piperazine-1-carboxylic acid benzhydryl-amide], the IC50 was found to be 3400 nM in assay [2] (setting [6]) and 5100 nM in assay [2] (setting [7]).
As for `O=C(NC(c1ccccc1)c1ccccc1)N1CCN(CCN2CCCC2)CC1` [Compound 21], the IC50 in assay [1] (setting [4]) stood at 1000 nM; in assay [1] (setting [5]) it was 1000 nM; in assay [2] (setting [6]), 2000 nM; in assay [2] (setting [7]) it was 15000 nM.
With `CN1CCCC(C(c2ccccc2)N2CCN(C(=O)NC(c3ccccc3)c3ccccc3)CC2)C1` (centres unmarked) [Compound 22, 4-[(1-Methyl-piperidin-3-yl)-phenyl-methyl]-piperazine-1-carboxylic acid benzhydryl-amide], the IC50 in assay [1] (setting [4]) was 6300 nM; in assay [1] (setting [5]), 2150 nM.
Regarding `CN1CCC(C(c2ccc(Cl)cc2)N2CCN(C(=O)NC(c3ccccc3)c3ccccc3)CC2)CC1` (centres unmarked) [Compound 24, 4-[(1-Methyl-piperidin-4-yl)-(4-chloro-phenyl)-methyl]-piperazine-1-carboxylic acid benzhydryl-amide], the figures for the IC50 in assay [1] (setting [4]) and in assay [1] (setting [5]) were 4310 nM and 2460 nM, respectively.
As to `CN1CCC[C@H]1CN1CCN(C(=O)NC(c2ccccc2)c2ccccc2)CC1` [Compound 25], the IC50 in assay [1] (setting [4]) was more than 5900 nM.
Consider `CN(C(=O)N1CCN(CCN2CCCC2)CC1)C(c1ccccc1)c1ccccc1` [Compound 32, 4-(2-pyrrolidin-1-ylethyl)-piperazine-1-carboxylic acid benzhydryl-methyl-amide], for which the IC50 in assay [1] (setting [4]) was more than 20000 nM; in assay [1] (setting [5]), more than 8800 nM; in assay [2] (setting [6]) it was more than 6720 nM; in assay [2] (setting [7]), more than 23000 nM.
Regarding `O=C(NC(c1ccccc1)c1ccccc1)N1CCN(C(c2ccccc2)C2CCNCC2)CC1` (centres unmarked) [Compound 35, 4-[Piperidin-4-yl-phenyl-methyl]-piperazine-1-carboxylic acid benzhydryl-amide], the IC50 in assay [1] (setting [4]) was determined as 3470 nM; in assay [1] (setting [5]), 2160 nM; in assay [2] (setting [7]) it was 663 nM.
Regarding `Cc1ccc(C(C2CCN(C)CC2)N2CCN(C(=O)NC(c3ccccc3)c3ccccc3)CC2)c(C)c1` (centres unmarked) [Compound 36, 4-[(1-Methyl-piperidin-4-yl)-(2,4-dimethyl-phenyl)-methyl]-piperazine-1-carboxylic acid benzhydryl-amide], the IC50 worked out at 1300 nM in assay [2] (setting [6]) and 1900 nM in assay [2] (setting [7]).
Consider `CN1CCC(C(c2ccccc2Cl)N2CCN(C(=O)NC(c3ccccc3)c3ccccc3)CC2)CC1` (centres unmarked) [Compound 37, 4-[(1-Methyl-piperidin-4-yl)-(2-chloro-phenyl)-methyl]-piperazine-1-carboxylic acid benzhydryl-amide], for which the half-maximal inhibitory concentration (IC50) in assay [1] (setting [4]) was found to be 1330 nM; in assay [1] (setting [5]) it was 910 nM.
The like results for `CN1CCC(C(c2cccc(Cl)c2)N2CCN(C(=O)NC(c3ccccc3)c3ccccc3)CC2)CC1` (centres unmarked) [Compound 38, 4-[(1-Methyl-piperidin-4-yl)-(3-chloro-phenyl)-methyl]-piperazine-1-carboxylic acid benzhydryl-amide] were, in that order, 3310 nM and 1560 nM.
The like results for `CN(C(=O)N1CCN(C(c2ccccc2)c2ccccc2)CC1)C(c1ccccc1)c1ccccc1` [Compound 39, 4-(Diphenyl-methyl)-piperazine-1-carboxylic acid benzhydryl-methyl-amide] were, in that order, 660 nM and 310 nM.
